≈ marks a conversion by molar mass, not a printed value.

For this series the following is noted: buffer; pH 7.4; 200.0 µM.
The kinetic solubility is solubility judged after dilution from a stock solution rather than from solid. On to `COC(=O)c1ccc(-c2noc(CN3CCCC(CNC(C)=O)C3)n2)cc1` (configuration not stated), for which the kinetic solubility was 43.3 µg/mL (≈ 116 µM).
The same measure for `CCNC(=O)CCSc1nc(C)cc(C)n1`: > 35.9 µg/mL.
The same measure for `CC(C)C(=O)Nc1csc(C(F)(F)F)c1-c1ccccc1`: 12.8 µg/mL (≈ 40.8 µM).
The same measure for `Cc1ccc(NC(=O)CC(=O)Nc2ccc(C)cc2)cc1`: < 0.3 µg/mL; for `Cc1ccc(NC(=O)C2CCCN2C(=O)c2cccs2)c(C)c1` (configuration not stated): 24 µg/mL (≈ 73.1 µM).
`COc1c(Cl)cccc1-c1cn2ccccc2n1` came in with a kinetic solubility of 2 µg/mL (≈ 7.73 µM).
The same measure for `Cc1csc(Nc2nc(N)c(C(=O)Nc3cc(Cl)ccc3F)o2)n1`: 3.1 µg/mL (≈ 8.43 µM).
`O=C(Nc1ccc(CN2CCCCC2)cc1)c1cccc(F)c1` gave a solubility (kinetic) of 44.7 µg/mL (≈ 143 µM).
The same measure for `Cc1ccc(OCC(=O)Nc2ccncc2)cc1`: 35.1 µg/mL (≈ 145 µM); for `Cc1cc(S(=O)(=O)N2CCN(c3ccccn3)CC2)ccc1F`: 3.6 µg/mL (≈ 10.7 µM); for `O=C(CCNS(=O)(=O)c1ccc(F)c(Cl)c1)NCc1ccccc1F`: 27.2 µg/mL (≈ 70 µM).
Regarding `Cc1ccc(C(NC(=O)Nc2ccccn2)C(Cl)(Cl)Cl)cc1F` (configuration not stated), the solubility (kinetic) is < 0.3 µg/mL.
`CC(=O)OCCN(C)c1cc(SC(C)C)c2nonc2c1[N+](=O)[O-]` yielded a kinetic solubility of 51.2 µg/mL (≈ 144 µM).
On to `CNS(=O)(=O)c1ccc(NC(=O)Nc2ccc3c(c2)OCO3)cc1`, for which the kinetic solubility worked out at 15.6 µg/mL (≈ 44.7 µM).
Turning to `COc1ccc(C(=O)NC(C)C2CC3CCC2C3)c(OC)c1` (configuration not stated), the kinetic solubility was > 45.5 µg/mL.
The figure for `CCOC(=O)c1cc(S(=O)(=O)NCc2ccco2)cn1C` is > 46.9 µg/mL.
The figure for `COc1cc(OC)c(NC(=S)NCc2ccc(F)cc2)cc1Cl` is 1 µg/mL (≈ 2.82 µM).
The same measure for `Cc1cnc(C(=O)OCC(=O)Nc2cccc(S(=O)(=O)N3CCOCC3)c2)cn1`: > 63.1 µg/mL; for `CC(C)NCc1cc(Br)ccc1OCc1ccccc1.Cl`: > 55.6 µg/mL; for `CN1C(=O)C(C)(C)N(C(=O)c2cccc([N+](=O)[O-])c2)c2ccccc21`: 29.5 µg/mL (≈ 86.9 µM).
For the molecule `Nc1nc(Nc2cccc(F)c2)nc(N2CCOCC2)c1[N+](=O)[O-]`, the kinetic solubility is 2.9 µg/mL (≈ 8.67 µM).
Consider `O=c1[nH]cccc1-c1nc2ccccc2[nH]1`, for which the kinetic solubility was > 31.7 µg/mL.
Molecule `Cc1ccccc1Cn1cnc2c(oc3ccccc32)c1=O` had a solubility (kinetic) of 0.9 µg/mL (≈ 3.1 µM).
The figure for `Cc1ccc(OCCn2ccnc2)c(C)c1` is 22.8 µg/mL (≈ 105 µM); for `CC(OCCN(C)C)C(=O)C12CC3CC(CC(C3)C1)C2.Cl` (configuration not stated) it is 46.8 µg/mL; for `CCS(=O)(=O)N1CCN(C(=O)c2cccc3ccccc23)CC1` it is > 49.9 µg/mL.
The figure for `O=C(C(=O)N1CCOCC1)c1cn(Cc2ccccc2)c2ccccc12` is 6.4 µg/mL (≈ 18.4 µM); for `COc1ccc(/C=C/C(=O)Nc2cccnc2Cl)cc1` it is 8.9 µg/mL (≈ 30.8 µM).
The same measure for `COc1ccc(O)c(CNc2ccccc2F)c1`: 34 µg/mL (≈ 138 µM); for `COc1ccc(Nc2cc(C)nc3c(C)cccc23)cc1OC`: > 46.3 µg/mL.
As for `Cc1cc(C(=O)Nc2ccc(Cl)cc2)c2ccccc2n1`, the kinetic solubility is < 0.3 µg/mL.
The same measure for `Cc1ccc(C(=O)Nc2cccnc2N2CCN(C)CC2)cc1`: > 46.6 µg/mL; for `O=C(CSc1ccccc1C(=O)O)NCC1CCCCC1`: 44.2 µg/mL (≈ 144 µM); for `CCN(C(=O)COc1ncnc2sccc12)c1ccccc1`: 42.5 µg/mL (≈ 136 µM).
The same measure for `O=C(Nc1ccc(N2CCCC2)cc1)c1ccc(Br)cc1`: 1.4 µg/mL (≈ 4.06 µM); for `Cc1ccc(CSCC(=O)Nc2ccccc2C(=O)O)cc1`: > 47.3 µg/mL.
Consider `COC(=O)c1cn(CC(=O)Nc2ccc(OC)cc2)c2ccccc12`, for which the kinetic solubility was < 0.4 µg/mL.
The same measure for `Cc1ccc(NC(=O)CN2C(=O)c3ccccc3C2=O)cc1`: 2 µg/mL (≈ 6.8 µM).
The same measure for `O=C1Nc2ccc([N+](=O)[O-])cc2OC1CCN1CCCC1` (configuration not stated): > 43.7 µg/mL; for `O=C(COC(=O)/C=C/c1ccc(Cl)cc1)Nc1cccc(S(=O)(=O)NC2=NCCCCC2)c1`: 8.7 µg/mL (≈ 17.8 µM).
The same measure for `CCOc1ncccc1C(=O)OCC(=O)c1ccccc1`: 39.9 µg/mL (≈ 140 µM); for `O=C(Nc1ccc(F)cc1F)c1cc(Cl)sc1Cl`: < 0.7 µg/mL; for `COc1cc2ncnc(NCc3ccc(C)o3)c2cc1OC`: 35 µg/mL (≈ 117 µM).
In turn, `COCCN1C(=O)CS/C1=C(/C#N)C(=O)NCc1ccco1` gave a kinetic solubility of 41.4 µg/mL (≈ 129 µM).
The figure for `CCn1cc(C(=O)NCCC(=O)NCCCO)c(=O)c2cc3c(cc21)OCO3` is > 58.4 µg/mL.
Consider `O=C(NCc1cccnc1)/C(=C/c1ccccc1)NC(=O)c1ccccc1`, for which the solubility (kinetic) is > 53.6 µg/mL.
Turning to `CC12CC3CC(C)(C1)CC(C(=O)NCc1ccncc1)(C3)C2`, the solubility (kinetic) is > 44.8 µg/mL.
The same measure for `CSc1ncccc1C(=O)Nc1ccc2c(c1)OCCO2`: 15.7 µg/mL (≈ 51.9 µM); for `CCOC(=O)c1cnc2c(F)ccc(F)c2c1Sc1ccccc1`: 5.7 µg/mL (≈ 16.5 µM).
The figure for `COc1ccc(CCNCCN2CCOCC2)cc1.Cl` is 24.9 µg/mL; for `O=C(NCCc1ccccc1)Oc1ccc(Cl)cc1` it is 2.3 µg/mL (≈ 8.34 µM).
In turn, `O=[N+]([O-])c1cccc(-c2ncc3ccccn23)c1` registered a kinetic solubility of 19.1 µg/mL (≈ 79.8 µM).
The figure for `O=C(NCc1ccco1)c1ccc(Cn2c(=S)[nH]c3ccccc3c2=O)cc1` is 0.4 µg/mL (≈ 1.02 µM).
Turning to `CCOC(=O)CCN1C(=O)c2ccccc2Sc2ncccc21`, the solubility (kinetic) is > 49.3 µg/mL.
Take `Cc1ccc2oc(C(=O)NCC3CCOCC3)c(C)c2c1`: the solubility (kinetic) came out at 42.8 µg/mL (≈ 149 µM).
The same measure for `CC(=O)c1cccc(NC(=O)C(C)OC(=O)C2=NNC(=O)CC2)c1` (configuration not stated): > 49.7 µg/mL.
For the molecule `NC(=O)C1CCN(C(=O)/C(=C/c2ccccc2)NC(=O)c2ccccc2)CC1`, the solubility (kinetic) was determined as 53.7 µg/mL (≈ 142 µM).
The figure for `CCCCCCOc1ccc(C(=O)NCCCn2ccnc2)cc1` is > 49.4 µg/mL.
As to `O=C(NC12CC3CC(CC(C3)C1)C2)c1ccc([N+](=O)[O-])o1`, the kinetic solubility came to 34.9 µg/mL (≈ 120 µM).
The figure for `O=C(N/N=C/c1ccccc1O)C1CCCC1` is > 34.8 µg/mL.
The figure for `O=C1COc2ccc(C(=O)COC(=O)Cc3ccccc3F)cc2N1` is 24 µg/mL (≈ 69.9 µM); for `CC(=O)N1CCN(C(=O)c2cc(=O)c3ccccc3o2)CC1` it is > 45 µg/mL.
The same measure for `CCCOc1ccc(Cc2c(O)nc(N)[nH]c2=O)cc1C`: 15.6 µg/mL (≈ 53.9 µM); for `COc1cccc(-n2c(=S)[nH]c3c(oc4ccccc43)c2=O)c1`: 45.3 µg/mL (≈ 140 µM).
In turn, `O=c1cnc2ccccc2n1Cc1ccccc1C(F)(F)F` had a solubility (kinetic) of 43.1 µg/mL (≈ 142 µM). The solubility kinetic values of the last two molecules are within 1.5-fold of each other.
The same measure for `CC(=O)c1cccc(NC(=O)COC(=O)C2CCCN2C(=O)c2cccs2)c1` (configuration not stated): 6.5 µg/mL (≈ 16.2 µM); for `CC1CCCCN1C(=O)c1cc(S(=O)(=O)N2CCOCC2)ccc1Cl` (configuration not stated): > 58 µg/mL; for `CC(C)(C)c1cc(CCC(=O)NCc2cccnc2)cc(C(C)(C)C)c1O`: 36.5 µg/mL (≈ 99 µM).
The figure for `CNC(=O)N1c2ccccc2CCc2ccccc21` is > 37.8 µg/mL; for `O=C1CSC(c2ccc(F)cc2)N1c1c(F)cccc1F` (configuration not stated) it is 31.2 µg/mL (≈ 101 µM).
In turn, `O=S(=O)(NCCCN1CCOCC1)c1ccc(Cl)s1` gave a solubility (kinetic) of 48.4 µg/mL (≈ 149 µM). Against the preceding molecule, the solubility kinetic is about 1.6-fold higher.
The same measure for `CC(=O)c1cc(CN2CCN(CCC(C)C)C(CCO)C2)cs1` (configuration not stated): > 50.8 µg/mL; for `CC1(C)CN(C(Cc2ccccc2)C(N)=O)C1=O` (configuration not stated): > 36.9 µg/mL; for `O=C1CCC([N+](=O)[O-])C(c2ccccc2Br)N1` (configuration not stated): > 44.9 µg/mL.
For the molecule `CCc1ccc(C(=O)COC(=O)c2cnc(C)cn2)cc1`, the kinetic solubility is > 42.6 µg/mL.
The figure for `Cc1ccc(C(=O)OCC(=O)NCCc2ccc(S(N)(=O)=O)cc2)o1` is > 55 µg/mL.
The same measure for `Cc1cc(C(=O)COC(=O)/C=C/c2ccc(F)cc2)c(C)n1C`: 6.2 µg/mL (≈ 19.7 µM).
Consider `Cc1ccc(NC(=O)CN2C(=O)S/C(=C\c3ccccn3)C2=O)cc1C`, for which the solubility (kinetic) is < 0.3 µg/mL.
The same measure for `CC(NC(=O)C1CCN(C(=O)c2ccc(F)cc2)CC1)c1ccc(S(N)(=O)=O)cc1` (configuration not stated): > 65 µg/mL; for `Cc1ccc(CCN2CC(C(=O)NCCC(C)C)CC2=O)cc1` (configuration not stated): 45.7 µg/mL (≈ 144 µM); for `CC(=O)O/N=C/c1c(NCc2ccccc2)nc2c(C)cccn2c1=O`: 25.7 µg/mL (≈ 73.3 µM).
For the molecule `COC(=O)Nc1c(-c2ccccc2)nc2ccc(Cl)cn12`, the kinetic solubility stood at 2.2 µg/mL (≈ 7.29 µM).
The same measure for `CCN(CC(=O)NC(C)C)C(=O)c1cc(S(=O)(=O)N2CCCCC2)ccc1N1CCCCC1`: 10.7 µg/mL (≈ 22.4 µM).
The same measure for `COc1ccc(/C=C/C(=O)NCCCN2CCCC2)cc1`: > 43.3 µg/mL.
With `CP(=O)(Nc1ccccc1)C(Cl)(Cl)Cl` (configuration not stated), the kinetic solubility was > 40.9 µg/mL.
`COc1cccc(-c2cc(C(=O)NC3CC3)c3ccccc3n2)c1` showed a kinetic solubility of 5.6 µg/mL (≈ 17.6 µM).
The same measure for `COc1cc(CN2CCCC(C)C2)ccc1OCc1ccccc1` (configuration not stated): 42.9 µg/mL (≈ 132 µM); for `Cn1c(C(=O)NCCc2ccccc2)cc(=O)n(C)c1=O`: > 43.1 µg/mL.
The figure for `CC1CCCC(NC(=O)/C=C/c2c(F)cccc2Cl)C1C` (configuration not stated) is 0.9 µg/mL (≈ 2.9 µM); for `O=C(NCC(O)c1ccc([N+](=O)[O-])cc1)Nc1ccccc1` (configuration not stated) it is 42 µg/mL (≈ 139 µM).
`Cc1ccc(CNC(=O)Cc2noc3ccccc23)cc1` returned a kinetic solubility of 2.3 µg/mL (≈ 8.2 µM).
The figure for `CCN1CCC(NCC2CCCCC2)CC1` is 23.2 µg/mL (≈ 103 µM); for `CC(C)CC1(C)NC(=O)N(CC(=O)Nc2ccccc2Br)C1=O` (configuration not stated) it is > 57.3 µg/mL; for `CCOC(=O)C1=C(C)NC(C)=C(C(=O)OCC)C1c1cccc(C)n1` it is 5.1 µg/mL (≈ 14.8 µM).
The same measure for `Cc1ccsc1C(=O)OCc1cc(=O)n2ccsc2n1`: 6.3 µg/mL (≈ 20.6 µM); for `O=C1C2CCCCN2C(=O)N1CCCCN1CCN(c2ccc(F)cc2)CC1` (configuration not stated): 43.5 µg/mL (≈ 112 µM); for `CC(OC(=O)CN1C(=O)c2ccccc2C1=O)C(=O)NC1CCCCC1` (configuration not stated): > 53.8 µg/mL.
`CCOc1cc(N2CCOCC2)c(OCC)cc1NC(=O)c1cc(S(=O)(=O)N2CCOCC2)ccc1C`: the solubility (kinetic) was > 80 µg/mL.
The same measure for `O=C1CCCN1CCC1CCCCN1Cc1nc(-c2cnccn2)no1` (configuration not stated): > 53.5 µg/mL; for `CSc1ccccc1C(=O)C1CCCN(C(=O)NC(C)C)C1` (configuration not stated): 42.1 µg/mL (≈ 131 µM).
`Cc1cnc(NC(=O)c2ccc3ncsc3c2)s1` gave a kinetic solubility of 3.5 µg/mL (≈ 12.7 µM).
Molecule `Cc1ccc(C(=O)Nc2c[nH]c(=O)[nH]c2=O)cc1` registered a solubility (kinetic) of 7.9 µg/mL (≈ 32.2 µM).

Source of the values: PubChem BioAssay AID1996.
